Data reported in article PMC5498006 (Biochemistry, 2016).

Biological target: T1, CCL21 (CC chemokine ligand 21), truncated (Homo sapiens, UniProt O00585)
T1 sequence (O00585 24-102): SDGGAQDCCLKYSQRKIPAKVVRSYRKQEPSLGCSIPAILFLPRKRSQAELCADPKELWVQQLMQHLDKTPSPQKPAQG
Test: 2D 1H-15N HSQC NMR titration
Format: binding

Kd: ~38.9 mM
Structure (SMILES): N[C@@H](Cc1ccc(OS(=O)(=O)O)cc1)C(=O)O [sY, sulfotyrosine]
